Data set [1] deals with T1, GLP-1R (Homo sapiens, UniProt P43220). Kind of data set: b-arrestin 2 recruitment enzyme fragment complementation assay in HEK293/b-arrestin2/hGLP1R cells. It is filed as cell-based. Set-up: The full-length human GLP1R (NP_002053.3) with a C-terminus fusion to a small b-gal fragment called enzyme donor or ProLink (PK); host or cells: HEK293/b-arrestin2-EA (HEK293/Barrestin clone 2C6/hGLP1R-Prolink1 high sorted, ACL21687). The source says: To test the recruitment of b-arrestin 1 and b-arrestin 2 to GLP1R upon receptor activation, two enzyme fragment complementation assays were developed. To generate the assay cell lines, b-arrestin 1 fused to the b-galactosidase (b-gal) reporter fragment called enzyme acceptor (EA) (i.e., b-arrestin1-EA) or b-arrestin 2 fused to the b-gal reporter fragment EA (i.e., b-arrestin2-EA) were transduced into HEK293 cells using PathHunter b-Arrestinl Retroparticles (DiscoverX, #83-OT-TB-N-01) or PathHunter b-Arrestin2 Retroparticles (DiscoverX, #93-1087), respectively. The full-length human GLP1R (NP_002053.3) with a C-terminus fusion to a small b-gal fragment called enzyme donor or ProLink (PK) (i.e., hGLP1R-PK) was then engineered into HEK293/b-arrestinl-EA cells and HEK293/b-arrestin2-EA cells to generate the cell lines referred herein as HEK293/b-arrestin1/hGLP1R and HEK293/b-arrestin2/hGLP1R. Recruitment of b-arrestin 1 or b-arrestin 2 to GLP1R in these reporter cell lines brings both b-gal fragments (EA and PK) into close proximity, leading to reconstitution of a fully functional enzyme capable of hydrolyzing a substrate and generating a chemiluminescent signal.
(§1) For all assays, cells were seeded into 384-well plates (Falcon #353988) at 6,000 cells/well in assay media (Opti-MEM, 1% FBS, 1×Penicillin-Streptomycin) and incubated overnight at 37° C. Serial dilutions of the anti-GLP1R ATLs and non-binding control ATLs were performed in assay media. Serial dilutions of linker-payloads (LPs) were performed in 100% DMSO (ATCC, #4-X-5), followed by 1:100 dilution in assay media. Test articles were added to cells (1:5 dilution) using VIAFLO 384 (Integra) with the last well in each serial dilution series serving as a blank control containing only assay media for ATLs or assay media with 0.2% DMSO for LPs. The blank was plotted as a continuation of the serial dilution.
For b-arrestin 1 and b-arrestin 2 recruitment assays, after a 1-hour incubation at 37° C., PathHunter Detection Reagent (Eurofins DiscoverX, #93-0001) was added to the wells followed by a 1-hour incubation at room temperature. RLUs were measured on EnVision Plate Reader (Perkin Elmer).
(§2) EC50 values for luminescence assays were determined using a four-parameter logistic equation over a 12-point dose response curve (GraphPad Prism).
(In general: Activated receptors often draw arrestin, which recruitment assays turn into a signal.)

Data set [2] concerns the target T1, GLP-1R. Kind of data set: GLP-1R cAMP assay of peptides (Tables 10, 14, 15). It is filed as cell-based. Background: cAMP levels reflect the balance of adenylyl cyclase and phosphodiesterase activity.
Data set [3] can be described thus: Metabolite study in human liver S9 (high resolution LC-MS). Type of data set: in vitro ADME. The method, then:
Metabolite studies were conducted using Q-M3190 and Q-6009 (Q is Glutamine).
Liver S9 is the supernatant obtained by grinding and centrifuging the liver cells. The enzymes content is lower compared to Hepatocytes. It mainly contains CYP enzymes and some biphasic enzymes (but no biphasic coenzyme), so additional coenzyme (NADPH and UDPGA, etc.) is needed to mediate the biphasic reaction.

Data set [4] addresses T1, GLP-1R. Briefly: CRE-Luc cAMP responsive luciferase reporter assay in HEK293/CRE-Luc/hGLP1R cells. It is filed as cell-based. Also on record: engineered to express full-length human GLP1R (GenBank: AAI12127.1) (HEK293/CRE-Luc/hGLP1R); expressed in transfected cells; host or cells: HEK293/CRE-Luc (HEK293/FSC11/pCDNA3.1 + GLP1R, ACL6822). Particulars: for Emax: HEK293, read-out: Emax (% GLP-1), CRE-dependent reporter activity, HEK293/CRE-Luc/hGLP1R.
Text: To test the activity of GLP1R agonist linker-payloads (LPs) and anti-GLP1R antibody-tethered ligands (ATLs) of the invention, a cell-based cAMP responsive luciferase reporter assay was developed. To generate the assay cell line, the firefly luciferase gene was placed under the control of four copies of a cAMP response element (4×CRE) located upstream of a minimal promoter and transfected into HEK293 cells and referred to herein as HEK293/CRE-Luc cells. HEK293/CRE-Luc cells were then engineered to express full-length human GLP1R (GenBank: AAI12127.1) (HEK293/CRE-Luc/hGLP1R).
as §1
For the CRE-Luc assay, after a 5-hours incubation at 37° C., luciferase activity was determined by addition of ONE-Glo reagent (Promega, #E6130) followed by measurement of relative light units (RLUs) on EnVision Plate Reader (Perkin Elmer).
as §2
Background: In a reporter assay the amount or activity of a reporter protein is the signal.

Data set [5] in a line: pH stability (special liability). It is filed as physicochemical.
For another data set, the system named is GLP1R humanized mouse. Kind of data set: In vivo conversion of c-M3190 ATL to c-M6009 after s.c. dosing. As to conditions: 7 days. The method, then: From a tryptic digestion of the parent M3190-ATL, peptide c-M3190 is a peptide and their structures/sequences were determined by high resolution mass spectroscopy as shown below.
11.4 Syntheses and Characterization of Peptide Compounds Identified from M3190 Metabolite Study

For data set [6], the target named is T2, GLP-1R of the cAMP assay of Tables 10, 14 and 15 (human, UniProt P43220 24-463, limits assumed). Briefly: cell-based or functional assay.
Data set [7] deals with hGLP1R-PK: full-length human GLP1R (NP_002053.3) with a C-terminus fusion to ProLink (PK), on … (human, UniProt P43220 24-463). Briefly: cell-based or functional assay.
The target in data set [8] is full-length human GLP1R (GenBank: AAI12127.1) expressed on HEK293/CRE-Luc/hGLP1R cells (human, UniProt P43220 24-463). Briefly: cell-based or functional assay.
For data set [9], the target named is T2, GLP-1R of the cAMP assay of Tables 10, …. Kind of data set: cell-based or functional assay. The source holds these as a separate data set.

Where “and” joins values, the source holds several entries; their conditions need not be identical. Equal values may be shown once. Non-standard residues stand in square brackets, D forms with d. Groups on a side chain read outwards from the residue. No end group written: not given here. M3190 payload = not defined here; AA10 = not defined here; AA1 = not defined here; AA2 = not defined here; AA6 = not defined here; AA9 = not defined here

T1 sequence (P43220 24-463): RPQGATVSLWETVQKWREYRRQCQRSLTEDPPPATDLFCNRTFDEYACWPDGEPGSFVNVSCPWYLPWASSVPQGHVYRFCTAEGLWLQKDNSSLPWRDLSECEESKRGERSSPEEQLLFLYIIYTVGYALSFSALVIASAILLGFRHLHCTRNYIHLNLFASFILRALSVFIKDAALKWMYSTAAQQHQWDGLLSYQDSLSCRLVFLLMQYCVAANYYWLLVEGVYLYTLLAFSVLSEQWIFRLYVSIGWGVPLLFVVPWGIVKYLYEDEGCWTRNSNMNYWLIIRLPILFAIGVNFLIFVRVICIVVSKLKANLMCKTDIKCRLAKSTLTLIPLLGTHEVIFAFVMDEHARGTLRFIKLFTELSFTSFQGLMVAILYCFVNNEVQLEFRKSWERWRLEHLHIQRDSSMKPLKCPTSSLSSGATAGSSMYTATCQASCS

On to `CCc1cc(OCCCCn2cc(COCCOCCOCCOCCOCCOCCOCCOCCN)nn2)ccc1-c1ccc(C[C@H](NC(=O)[C@H](CC(=O)O)NC(=O)[C@H](CO)NC(=O)[C@@H](NC(=O)C(C)(Cc2ccccc2F)NC(=O)[C@@H](NC(=O)CNC(=O)[C@H](Cc2nn[nH]n2)NC(=O)C(C)(C)C(=O)NCCc2cnc[nH]2)[C@@H](C)O)[C@@H](C)O)C(=O)N[C@@H](CCCc2cc(C)cc(C)c2)C(=O)O)cc1` (stereo partly shown) [M6009], for which the “b-arrestin 2 recruitment (in words)” value on GLP-1R [1] (HEK293/b-arrestin2/hGLP1R cells) is on record as “comparable activities as that of M3190”. Also, the “GLP-1R CAMP Max” value at GLP-1R [2] (Table 10) came to 139.7%. Further, the EC50 at GLP-1R [2] (Table 10, read-out: GLP-1R CAMP EC50) came out at 2.23 nM. In data set [3] (Q-M6009 in human liver S9, text), the “amount remaining / detected after incubation of Q-M6009” value was 93%. Further, the entries for the “Relative Abundance (% Total)” value in [3] (metabolites of Q-M3190 at 4 hours in human liver S9) and in data set [3] (metabolites of Q-M6009 at 4 hours in human liver S9) were 2.34 % Total and 13.14 % Total, respectively. On GLP-1R [4], the Emax came to 92.1%. Further, on GLP-1R [4] (HEK293/CRE-Luc/hGLP1R cells), the “CRE-dependent luciferase reporter activity (in words)” value is “comparable activities as that of M3190”. The Special liability entry in [5] is “stable at pH <3 or pH >11, and unstable at PH <1”. Besides, the solubility in the data set “physchem” is > 70000 µg/mL and > 30000 µM.
With `CCc1cc(OCCCCn2cc(COCCOCCOCCOCCOCCOCCOCCOCCN)nn2)ccc1-c1ccc(C[C@H](NC(=O)[C@H](CC(=O)O)NC(=O)[C@H](CO)NC(=O)[C@@H](NC(=O)C(C)(Cc2ccccc2F)NC(=O)[C@@H](NC(=O)CNC(=O)[C@H](Cc2nnn[nH]2)NC(=O)C(C)(C)C(=O)NCCc2cnc[nH]2)[C@@H](C)O)[C@@H](C)O)C(=O)O)cc1` (stereo partly shown) [M6324], the EC50 at GLP-1R [1] was more than 1000 nM; at GLP-1R [2], 882 nM. For the same molecule, the Emax on GLP-1R [1] (HEK293, read-out: Emax (% GLP-1), b-Arrestin2 recruitment, HEK293/b-arrestin2/hGLP1R) was 0.7%; on GLP-1R [1] (read-out: b-arrestin 2 recruitment Emax relative to GLP-1, HEK293/b-arrestin2/hGLP1R cells) it was 0.7%; on GLP-1R [4] it was 91.6%. For the same molecule, the “GLP-1R CAMP Max” value on GLP-1R [2] (Table 10) turned out to be 53.33%. The solubility in “Solubility in water” was > 70000 µg/mL and > 30000 µM.
As for “c-M3190 ATL: "Peptide C-M3190 identified from metabolite studies of M3190-antibody conjugate"; "From a tryptic digestion of the parent M3190-ATL" (LLQ(M3190 payload)GSGDIQMTQSPSSVSASVGDR; reading uncertain)”, the “conversion of c-M3190 ATL to c-M6009” value in the data set with GLP1R humanized mouse was “slowly converted to c-M6009 after 7 days”.

B1: Q-M3190 (AA10-AA9-AA8-AA7-AA6-AA5-AA4-AA3-(Q-L)AA2-AA1-NH2) (peptide)
peptide: [AA10][AA9]GT[AA6]TSD[AA2]([Leu-Gln])[AA1]-NH2
modifications: reading uncertain; also: printed as Q-M3190 (AA10-AA9-AA8-AA7-AA6-AA5-AA4-AA3-(Q-L)AA2-AA1-NH2)
Regarding B1, the “cAMP EC50 (nm)” value in [6] was 1.07 nm.

B2: M6324 (AA10-AA9-AA8-AA7-AA6-AA5-AA4-AA3-(L)AA2-OH) (peptide)
peptide: [AA10][AA9]GT[AA6]TSD[AA2](Leu)-OH
modifications: reading uncertain; also: printed as M6324 (AA10-AA9-AA8-AA7-AA6-AA5-AA4-AA3-(L)AA2-OH)
Regarding B2, in [7], the “EC50 (M), b-Arrestin2 recruitment, HEK293/b-arrestin2/hGLP1R” value was more than 1e-06 M and the “Emax (% GLP-1), b-Arrestin2 recruitment, HEK293/b-arrestin2/hGLP1R” value came to 0.7 % GLP-1. Also, in data set [8], the “EC50 (M), CRE-dependent reporter activity, HEK293/CRE-Luc/hGLP1R” value was 2.93e-07 M and the “Emax (% GLP-1), CRE-dependent reporter activity, HEK293/CRE-Luc/hGLP1R” value turned out to be 91.6 % GLP-1. Moreover, in data set [9], the “GLP-1R CAMP EC50” value is 882 nM and the “GLP-1R CAMP Max (%)” value was 53.3%.

As usually defined, the EC50 is the concentration giving half of the maximal effect. The solubility is the dissolved amount per volume that the medium holds. A low value points to little dissolved substance.

Source of the values: patent US20250171516A1, “PEPTIDE ACIDS AS A GLP1R AGONIST AND ANTIBODY-DRUG CONJUGATES THEREOF” (Regeneron Pharmaceuticals, Inc., priority 2023, published 2025).
